From PMC9105110, “Changes in Biochemical Properties and Activity of Trypsin-like Protease (Litopenaeus vannamei) Treated by Atmospheric Cold Plasma (ACP)” (Foods, 2022) come the findings set out here.

The test deals with T1, trypsin-like protease (trypsin) from Litopenaeus vannamei.
T1 construct: native, purified from hepatopancreas (ammonium sulfate, Q-Sepharose FF); single band about 33 kDa on SDS-PAGE
The test can be described thus: absorbance at […] nm, Lineweaver-Burk plot. Format: biochemical, Penaeus vannamei. To be noted: 20 mM Tris-HCl pH 8.0, 37 °C, 20 min, 0.4-2.4 mM substrate; untreated control (no cold plasma).

`N=C(N)NCCCC(NC(=O)c1ccccc1)C(=O)Nc1ccc([N+](=O)[O-])cc1` (racemic) [BAPNA]: the Michaelis-Menten constant (Km) was 4.16 ± 0.01 mM.

Usually Km stands for the substrate concentration at which the rate is half of its maximum.
